The source of these data is PubChem BioAssay AID1996.

Values after ≈ are worked out from the molar mass of the structure shown.

For the data set the following is noted: buffer; pH 7.4; 200.0 µM.
The molecule `Cc1ccccc1OC(C)C(=O)NCCC1=CCCCC1` (configuration not stated) showed a kinetic solubility of 19.6 µg/mL (≈ 68.2 µM).

Molecule `CC(=O)Nc1ccc2nsnc2c1` registered a kinetic solubility of more than 29 µg/mL.

Molecule `CC(=O)c1c(OC(=O)c2ccccc2)ccnc1C(F)(F)F` displayed a kinetic solubility of more than 46.4 µg/mL.

`COc1ccc(CSCC(=O)Nc2ccccc2)cc1[N+](=O)[O-]`: the kinetic solubility is more than 49.9 µg/mL.

`Cc1cc(C=C2C(=O)N(C)C(=S)N(C)C2=O)c(C)n1-c1cccnc1`: the kinetic solubility turned out to be 13.9 µg/mL (≈ 39.2 µM).

Molecule `COc1ccccc1NC(=O)COC(=O)c1cn(C)c2ccccc12` had a kinetic solubility of 1.5 µg/mL (≈ 4.43 µM).

With `O=C1CSC(c2cccc([N+](=O)[O-])c2)N1c1ccccc1` (configuration not stated), the solubility (kinetic) was 41.4 µg/mL (≈ 138 µM).

In turn, `O=c1[nH]c(-c2ccc(O)cc2)nc2scc(-c3cccs3)c12` came in with a kinetic solubility of 0.5 µg/mL (≈ 1.53 µM).

As for `CCN(CC)C(=O)c1ccc(S(=O)(=O)c2ccccc2)cc1`, the kinetic solubility worked out at 33.6 µg/mL (≈ 106 µM).

Consider `O=C(c1ccccc1)N1CCN(S(=O)(=O)N2CCCCCC2)CC1`, for which the solubility (kinetic) is more than 52.7 µg/mL.

Turning to `CCCCCCn1c(N2CCCC2)nc2c1c(=O)n(C)c(=O)n2C`, the kinetic solubility stood at 48.6 µg/mL (≈ 146 µM).

Turning to `O=C(Cn1cc(C(F)(F)F)cc(Cl)c1=O)NCc1ccccc1`, the solubility (kinetic) came out at 7.8 µg/mL (≈ 22.6 µM).

In turn, `Cc1ccc(NS(=O)(=O)c2ccc3c(c2)oc(=O)n3C)cc1C` yielded a kinetic solubility of less than 0.4 µg/mL.

Turning to `CCOc1ccccc1NC(=O)COC(=O)/C=C/c1cccs1`, the kinetic solubility worked out at 3.1 µg/mL (≈ 9.35 µM).

On to `O=S(=O)(NC1=NCCCCC1)c1ccc(Cl)cc1`, for which the kinetic solubility is more than 43 µg/mL.

On to `COc1ccccc1NC(=O)CCn1c(=S)oc2ccccc21`, for which the solubility (kinetic) stood at 7 µg/mL (≈ 21.3 µM).

For `Cc1ccc(NC(=O)NC(=O)COc2c(F)c(F)cc(F)c2F)c(C)c1`, the kinetic solubility amounted to 20.5 µg/mL (≈ 55.4 µM).

`O=C(CCNC(=O)c1ccco1)Nc1ccccc1` had a kinetic solubility of more than 38.7 µg/mL.

Consider `Cc1ccnc(SCC(=O)c2cccs2)n1`, for which the solubility (kinetic) was more than 37.5 µg/mL.

Regarding `Clc1cccc(Cl)c1C1Nc2cccc3cccc(c23)N1`, the solubility (kinetic) worked out at 3 µg/mL (≈ 9.52 µM).

As for `COCC(=O)Nc1ccc(Br)c(C)c1`, the solubility (kinetic) is more than 38.7 µg/mL.

In turn, `O=C(NC(=S)Nc1cc([N+](=O)[O-])ccc1O)C1CC1` gave a kinetic solubility of more than 42.2 µg/mL.

The molecule `C[C@@H]1NC(=O)/C(=C\c2ccccc2Br)NC1=O` displayed a solubility (kinetic) of 13.1 µg/mL (≈ 44.4 µM).

For `COC(=O)CSc1nc(NC#N)nc(NC(C)(C)C)n1`, the kinetic solubility was determined as 36.7 µg/mL (≈ 124 µM).

`COc1ccc(Cl)cc1S(=O)(=O)n1ccnc1` had a kinetic solubility of more than 40.9 µg/mL.

Take `CCC(CO)NCC#Cc1ccccc1.Cl` (configuration not stated): the kinetic solubility is more than 36 µg/mL.

As to `CC(=O)Nc1scc(C)c1-c1nc2ccccc2s1`, the kinetic solubility was less than 0.3 µg/mL.

`O=C1COc2ccc(S(=O)(=O)NCCc3ccccc3)cc2N1`: the solubility (kinetic) is 13 µg/mL (≈ 39.1 µM).

Take `CC(C)[C@H](NC(=O)c1cccc(CN(Cc2ccccc2)C(=O)/C=C/c2ccccc2)c1)C(=O)O`: the kinetic solubility came out at 69 µg/mL (≈ 147 µM). Compared with the last molecule, the solubility kinetic is about 5.3-fold higher.

Turning to `C[C@@H](C(=O)Nc1nc2ccccc2s1)N1C(=O)C2CC=CCC2C1=O` (some centres not stated), the kinetic solubility worked out at 45.2 µg/mL (≈ 127 µM).

Take `CN(Cc1c(F)cccc1Cl)C(=O)c1ccc2ccccc2n1`: the kinetic solubility is more than 49.3 µg/mL.

For the molecule `Cc1oc(/N=C/c2ccccc2)c(C#N)c1C`, the kinetic solubility came out at 9.2 µg/mL (≈ 41 µM).

`CCOc1ccc(Nc2cc(C)c3ccccc3n2)cc1` displayed a solubility (kinetic) of less than 0.3 µg/mL.

Turning to `O=C(COC(=O)c1ccc([N+](=O)[O-])o1)Nc1ncc(Cl)cc1Cl`, the solubility (kinetic) is more than 54 µg/mL.

With `COc1ccc(C(=O)N2CCC(C(=O)c3c(C)cc(C)cc3C)CC2)cc1`, the solubility (kinetic) was found to be 31.4 µg/mL (≈ 85.9 µM).

The molecule `Cc1ccc(C(=O)NCN2CCN(c3ccc(F)cc3)CC2)cc1` displayed a kinetic solubility of more than 49.1 µg/mL.

`CC(C)Oc1cccc(NC(=O)c2cnccc2C(F)(F)F)c1` yielded a kinetic solubility of 43.9 µg/mL (≈ 135 µM).

`Cc1cccc(C(=O)NC(=S)NCc2ccccc2)c1`: the solubility (kinetic) was 2.4 µg/mL (≈ 8.44 µM). Against the preceding molecule, the solubility kinetic is about 18-fold lower.

The molecule `CC1CCCC(C)N1C(=O)COC(=O)Cc1ccc(Cl)cc1` (configuration not stated) returned a solubility (kinetic) of more than 48.6 µg/mL.

Molecule `CC(C)(CO)NC(=S)NCc1ccco1` returned a kinetic solubility of more than 34.2 µg/mL.

As for `CCCC(=O)OCC(=O)NC1CCCc2ccccc21` (configuration not stated), the kinetic solubility is more than 41.3 µg/mL.

As to `CCSc1c([N+](=O)[O-])c(=O)n(-c2ccccc2)c2ccccc12`, the solubility (kinetic) was 1.3 µg/mL (≈ 3.98 µM).

In turn, `CCN1CCN(C(C)CCc2ccccc2)CC1` (configuration not stated) registered a solubility (kinetic) of 30.6 µg/mL (≈ 124 µM). Against the preceding molecule, the solubility kinetic is about 24-fold higher.

As to `CC1CN(C(=O)c2ccc(NS(=O)(=O)c3ccc(F)cc3)cc2)CC(C)O1` (configuration not stated), the kinetic solubility is more than 58.9 µg/mL.

As to `O=[N+]([O-])c1ccc(OCc2n[nH]c(=S)n2-c2ccccc2)cc1`, the kinetic solubility is more than 49.3 µg/mL.

Turning to `CC(=O)N1CCN(c2cc(N3CCCC3)c(F)cc2[N+](=O)[O-])CC1`, the solubility (kinetic) is more than 50.5 µg/mL.

`Cn1nc(C(F)(F)F)c(-c2ccccc2)c1NC(=O)CCC(=O)O` gave a kinetic solubility of more than 51.2 µg/mL.

For the molecule `Cc1ncc([N+](=O)[O-])n1Cc1ccc(Cl)cc1`, the kinetic solubility worked out at 34.7 µg/mL (≈ 138 µM).

Regarding `O=C1CCCN1CC1CCN(Cc2nc(CC3CC3)no2)CC1`, the solubility (kinetic) worked out at 42.9 µg/mL (≈ 135 µM). This solubility kinetic and that of the molecule before are within 1.5-fold of each other.

Take `Cc1ccc(NC(=S)N(CCN(C)C)C(C)c2cccnc2)cc1` (configuration not stated): the solubility (kinetic) is more than 51.4 µg/mL.

`Cc1cc(Br)c2c(c1)C1(OCCO1)C(=O)N2` registered a kinetic solubility of more than 42.6 µg/mL.

`CC(OC(=O)CCCC(=O)Nc1ccccc1)C(=O)c1ccccc1` (configuration not stated): the solubility (kinetic) worked out at 45.6 µg/mL (≈ 134 µM).
